One data set deals with p38 MAP-kinase (Homo sapiens, UniProt Q16539). The experiment in a line: p38 MAP-kinase enzymatic assay (phosphorylation of GST-tagged ATF2, chemoluminescence). The format is biochemical. Particulars: inhibitor concentration 1 μM, activated p38 MAP-kinase 1 nM, ATP 100 μM; for inhibition at 1 µM: read-out: p38 (% Inh @ 1 μM). The method, then: In this, the amount of a substrate phosphorylated by the kinase is quantified. The test is carried out as follows:
The kinase reaction is carried out in the presence of HEPES (20 mM, pH 7), MgCl2 (10 mM), DTT (1 mM) and TWEEN20 (0.01%). First, dimethylsulphoxide or inhibitor (final concentration: 1 μM) dissolved in dimethylsulphoxide are placed in a reaction vessel. Then the activated p38 MAP-kinase (final concentration 1 nM) is added and the mixture is incubated for 4 h at ambient temperature. Then a mixture of substrate (GST-tagged ATF2) and ATP is added and everything is incubated together for a further hour (final concentration ATP: 100 μM; final concentration ATF2: 10 nM).
The concentration of phosphorylated ATF2 is quantified by chemoluminescence-induced light emission. For this, a glutathione donor bead (final concentration: 5 μg/ml) which binds to the gluthathione on the ATF2 and phospho-ATF2 antibodies are added to the reaction mixture (final concentration: 3 nM; this binds the phosphate group added by the kinase reaction) to which a Protein A Acceptor Bead (final concentration: 5 μg/ml) binds. These components are dissolved in a buffer which contains 20 mM HEPES pH 7.0, 200 mM NaCL, 80 mM EDTA as well as 0.3% BSA. This reaction mixture is incubated in the dark for 1 hour at ambient temperature. When these beads come physically close, visible light is emitted which is measured in a photometer at 520-620 nm.
To determine the inhibitory activity of the compounds according to the invention a calculation is made to determine the percentage by which the kinase activity is inhibited at a fixed inhibitor concentration of 1 μM. The maximum activity is determined by non-inhibited kinase. The minimum activity or nonspecific background activity is determined using a reaction mixture without kinase.
Table 2 summarises the degree of inhibition of the enzyme p38 MAP-kinase—as described hereinbefore—mediated by the compounds according to the invention detailed in the section “Preparation of the final compounds”.

For the next data set, the target named is cytochrome P450 2C9 (Homo sapiens, UniProt P11712). The experiment in a line: Determining the cyp2C9 activity (O-demethylation of [O-methyl-14C]-naproxen). The format is in vitro ADME. Particulars: human recombinant cytochrome P450 2C9; 37° C.; <0.4 μM when inhibition >50% at lowest concentration; read-out: CYP 2C9 IC50. The procedure: Determining the cyp2C9 Activity:
The assay is carried out in a robot system with 96-well plates. The final incubation volume is 200 μl of TRIS-Puffer (0.1 M), magnesium chloride (5 mM), recombinant protein (40 pmol/ml), ^14C-labelled naproxen (80 μM) and the test compound in one of 4 concentrations (50 μM, 10 μM, 2 μM and 0.4 μM) as a duplicate in each case. After a short preincubation period the reactions are started by the addition of the cofactor (NADPH, 1 mM) and ended after 15 min by the addition of 50 μl of a 10% aqueous trichloroacetic acid solution. One aliquot of the incubate is transferred onto a 96-well solid phase extraction plate and extracted. The ^14C-formaldehyde formed during the reaction is not retained on the solid phase extraction plate and is thus separated from the unmetabolised substrate by washing the solid phase extraction plate with water. One aliquot of the eluate is transferred into a well plate suitable for liquid scintillation. […] The IC50 is determined by the least squares method using the following formula: control activity=(100% control activity/(1+(I/IC50)S))−B where I=Inhibitor concentration S=Pitch B=Background activity
When the inhibition of the reaction is >50% even at the lowest concentration of the test compound, the IC50 is given as <0.4 μM.

A short description of data set [1]: Determining the solubility (saturated solution in McIlvaine buffer pH 7.4, UV spectroscopy). The format is physicochemical. Particulars: pH 7.4, aqueous buffer, thermodynamic from solid, shaken 2 hours, 0.75 mg solid in 0.75 ml. The method, then:
Determining the Solubility:
Saturated solutions are prepared in suitable well dishes by adding 0.75 ml of a McIlvaine buffer (pH 7.4) to the well in question containing 0.75 mg of solid of an active substance. The wells are shaken for 2 hours and then filtration is carried out through a suitable filter membrane (typically polytetrafluoroethylene with a pore size of 0.45 μm). Filter absorption is prevented by discarding the first few drops of filtrate. The amount of active substance dissolved is determined by UV spectroscopy.

≈ marks a conversion by molar mass, not a printed value. Where “and” joins values, the source holds several entries; their conditions need not be identical. Equal values may be shown once.

In general, IC50 refers to the midpoint of a concentration-inhibition curve. The term solubility denotes the concentration that dissolves in the medium under given conditions. Low readings indicate a poorly soluble substance, high ones a readily soluble substance.

Chain of p38 MAP-kinase (Q16539 whole entry): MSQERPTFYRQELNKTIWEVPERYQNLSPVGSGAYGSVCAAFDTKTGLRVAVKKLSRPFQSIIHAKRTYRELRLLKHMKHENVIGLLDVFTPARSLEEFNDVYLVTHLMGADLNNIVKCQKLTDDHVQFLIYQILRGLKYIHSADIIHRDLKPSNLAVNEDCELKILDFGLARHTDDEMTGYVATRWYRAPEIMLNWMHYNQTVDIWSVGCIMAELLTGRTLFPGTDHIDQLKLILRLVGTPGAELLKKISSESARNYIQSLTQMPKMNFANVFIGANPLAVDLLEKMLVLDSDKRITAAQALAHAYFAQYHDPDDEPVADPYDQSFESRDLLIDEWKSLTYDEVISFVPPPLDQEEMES
Chain of cytochrome P450 2C9 (P11712 whole entry): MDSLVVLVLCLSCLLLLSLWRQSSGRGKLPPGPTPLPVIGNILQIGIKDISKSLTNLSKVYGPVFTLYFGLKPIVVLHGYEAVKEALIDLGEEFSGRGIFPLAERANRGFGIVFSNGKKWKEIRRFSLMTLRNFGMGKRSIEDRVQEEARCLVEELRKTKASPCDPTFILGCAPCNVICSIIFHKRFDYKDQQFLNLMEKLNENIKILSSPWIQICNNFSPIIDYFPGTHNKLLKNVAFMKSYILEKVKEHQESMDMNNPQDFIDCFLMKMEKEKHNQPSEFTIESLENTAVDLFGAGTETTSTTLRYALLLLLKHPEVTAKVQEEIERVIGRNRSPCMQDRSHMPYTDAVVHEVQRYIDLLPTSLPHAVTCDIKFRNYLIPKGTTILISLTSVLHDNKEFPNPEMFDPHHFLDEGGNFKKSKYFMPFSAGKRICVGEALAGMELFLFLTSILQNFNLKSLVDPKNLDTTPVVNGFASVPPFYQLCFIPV

`COc1c(NC(=O)c2cc3cccc(CN4CCN(C(=O)[C@@H]5CCCN5C)CC4)c3n2C)cc(C(C)(C)C)cc1NS(C)(=O)=O` [1(1), (S)-1-methyl-7-[4-(1-methyl-pyrrolidine-2-carbonyl)-piperazin-1-ylmethyl]-1H-indole-2-carboxylic acid(5-tert-butyl-3-methanesulphonylamino-2-methoxy-phenyl)-amide]: on p38 MAP-kinase, the inhibition at 1 µM worked out at 99.6%. In addition, the IC50 on cytochrome P450 2C9 turned out to be 2130 nM. The compound also returned a solubility at 2 h in data set [1] of 340 µg/mL (≈ 532 µM).
In the case of `COc1c(NC(=O)c2cc3cccc(CN4CCN(C(=O)C5CN(C)C5)CC4)c3n2C)cc(C(C)(C)C)cc1NS(C)(=O)=O` [1(2), 1-methyl-7-[4-(1-methyl-azetidine-3-carbonyl)-piperazin-1-ylmethyl]-1H-indole-2-carboxylic acid(5-tert-butyl-3-methanesulphonylamino-2-methoxy-phenyl)-amide], the inhibition at 1 µM at p38 MAP-kinase stood at 98.5%. The IC50 at cytochrome P450 2C9 worked out at 1340 nM. The compound also yielded a solubility at 2 h in data set [1] of 59 µg/mL (≈ 94.4 µM).
On to `COc1c(NC(=O)c2cc3cccc(CN4CCN(C(=O)[C@H]5CCCN5C)CC4)c3n2C)cc(C(C)(C)C)cc1NS(C)(=O)=O` [1(3), (R)-1-methyl-7-[4-(1-methyl-pyrrolidine-2-carbonyl)-piperazin-1-ylmethyl]-1H-indole-2-carboxylic acid(5-tert-butyl-3-methanesulphonylamino-2-methoxy-phenyl)-amide], for which, on p38 MAP-kinase, the inhibition at 1 µM was found to be 99.1%. At cytochrome P450 2C9, the IC50 stood at 1040 nM. In data set [1], this compound returned a solubility at 2 h of 160 µg/mL (≈ 250 µM).
The corresponding values for `COc1c(NC(=O)c2cc3cccc(CN4CCN(C(=O)[C@@H]5CCCN5)CC4)c3n2C)cc(C(C)(C)C)cc1NS(C)(=O)=O` [1(4), (S)-1-methyl-7-[4-(pyrrolidine-2-carbonyl)-piperazin-1-ylmethyl]-1H-indole-2-carboxylic acid(5-tert-butyl-3-methanesulphonylamino-2-methoxy-phenyl)-amide] are 99.2%, 890 nM and 100 µg/mL (≈ 160 µM).
The matching figures for `COc1c(NC(=O)c2cc3cccc(CN4CCN(C(=O)C5CCN5C)CC4)c3n2C)cc(C(C)(C)C)cc1NS(C)(=O)=O` (stereo not drawn) [1(5), 1-methyl-7-[4-(1-methyl-azetidine-2-carbonyl)-piperazin-1-ylmethyl]-1H-indole-2-carboxylic acid(5-tert-butyl-3-methanesulphonylamino-2-methoxy-phenyl)-amide]: 99%, 1630 nM and 670 µg/mL (≈ 1070 µM).
Consider `COc1c(NC(=O)c2cc3cccc(CC4CCN(C(=O)[C@H]5CCCN5C)CC4)c3n2C)cc(C(C)(C)C)cc1NS(C)(=O)=O` [1(6), (R)-1-methyl-7-[1-(1-methyl-pyrrolidine-2-carbonyl)-piperidin-4-ylmethyl]-1H-indole-2-carboxylic acid(5-tert-butyl-3-methanesulphonylamino-2-methoxy-phenyl)-amide], for which the inhibition at 1 µM at p38 MAP-kinase was determined as 99.3%. For the same compound, the IC50 on cytochrome P450 2C9 is 1430 nM. The compound further came in with a solubility at 2 h in data set [1] of 560 µg/mL (≈ 878 µM).
`COc1c(NC(=O)c2cc3cccc(CC4CCN(C(=O)[C@@H]5CCCN5C)CC4)c3n2C)cc(C(C)(C)C)cc1NS(C)(=O)=O` [1(7), (S)-1-methyl-7-[1-(1-methyl-pyrrolidine-2-carbonyl)-piperidin-4-ylmethyl]-1H-indole-2-carboxylic acid(5-tert-butyl-3-methanesulphonylamino-2-methoxy-phenyl)-amide]: the inhibition at 1 µM on p38 MAP-kinase was 98.9%. Besides, at cytochrome P450 2C9, the IC50 was found to be 780 nM. This compound also gave a solubility at 2 h in data set [1] of 170 µg/mL (≈ 267 µM).
For `COc1c(NC(=O)c2cc3cccc(CN4CCN(C(=O)[C@@H]5C[C@@H](O)CN5C)CC4)c3n2C)cc(C(C)(C)C)cc1NS(C)(=O)=O` [1(8), 7-[4-((2S,4R)-4-hydroxy-1-methyl-pyrrolidine-2-carbonyl)-piperazin-1-ylmethyl]-1-methyl-1H-indole-2-carboxylic acid(5-tert-butyl-3-methanesulphonylamino-2-methoxy-phenyl)-amide], the inhibition at 1 µM on p38 MAP-kinase came out at 98.9%. The IC50 on cytochrome P450 2C9 came to 1020 nM. In data set [1], the solubility at 2 h stood at 84 µg/mL (≈ 128 µM).
The matching figures for `COc1c(NC(=O)c2cc3cccc(CN4CCN(C(=O)[C@H]5C[C@@H](OC)CN5C)CC4)c3n2C)cc(C(C)(C)C)cc1NS(C)(=O)=O` [1(9), 7-[4-((2R,4R)-4-methoxy-1-methyl-pyrrolidine-2-carbonyl)-piperazin-1-ylmethyl]-1-methyl-1H-indole-2-carboxylic acid(5-tert-butyl-3-methanesulphonylamino-2-methoxy-phenyl)-amide]: 98.9%, 1120 nM and 440 µg/mL (≈ 658 µM).
With `COc1c(NC(=O)c2cc3cccc(CN4CCN(C(=O)[C@H]5C[C@@H](O)CN5C)CC4)c3n2C)cc(C(C)(C)C)cc1NS(C)(=O)=O` [1(10), 7-[4-((2R,4R)-4-hydroxy-1-methyl-pyrrolidine-2-carbonyl)-piperazin-1-ylmethyl]-1-methyl-1H-indole-2-carboxylic acid(5-tert-butyl-3-methanesulphonylamino-2-methoxy-phenyl)-amide], the inhibition at 1 µM at p38 MAP-kinase was determined as 99.6%. Moreover, the IC50 on cytochrome P450 2C9 was determined as 410 nM. The same compound displayed a solubility at 2 h in data set [1] of 43 µg/mL (≈ 65.7 µM).
The matching figures for `COc1c(NC(=O)c2cc3cccc(CN4CCN(C(=O)[C@H]5C[C@H](O)CN5C)CC4)c3n2C)cc(C(C)(C)C)cc1NS(C)(=O)=O` [1(11), 7-[4-((2R,4S)-4-hydroxy-1-methyl-pyrrolidine-2-carbonyl)-piperazin-1-ylmethyl]-1-methyl-1H-indole-2-carboxylic acid(5-tert-butyl-3-methanesulphonylamino-2-methoxy-phenyl)-amide]: 99.2%, 410 nM and 45 µg/mL (≈ 68.7 µM).
Turning to `COc1c(NC(=O)c2cc3cccc(CN4CCN(C(=O)[C@@H]5C[C@H](O)CN5C)CC4)c3n2C)cc(C(C)(C)C)cc1NS(C)(=O)=O` [1(12), 7-[4-((2S,4S)-4-hydroxy-1-methyl-pyrrolidine-2-carbonyl)-piperazin-1-ylmethyl]-1-methyl-1H-indole-2-carboxylic acid(5-tert-butyl-3-methanesulphonylamino-2-methoxy-phenyl)-amide], the inhibition at 1 µM at p38 MAP-kinase was 98.9%. The IC50 at cytochrome P450 2C9 stood at 1550 nM. The amount in solution in data set [1] (solubility at 2 h) came to 140 µg/mL (≈ 214 µM).
With `COc1c(NC(=O)c2cc3cccc(CN4CCN(C(=O)C(C)N5CCCC5)CC4)c3n2C)cc(C(C)(C)C)cc1NS(C)(=O)=O` (stereo not drawn) [1(13), 1-methyl-7-[4-(2-pyrrolidin-1-yl-propionyl)-piperazin-1-ylmethyl]-1H-indole-2-carboxylic acid-(5-tert-butyl-3-methanesulphonylamino-2-methoxy-phenyl)-amide], at p38 MAP-kinase, the inhibition at 1 µM stood at 98.7%. In addition, on cytochrome P450 2C9, the IC50 was 560 nM. This compound registered a solubility at 2 h in data set [1] of 40 µg/mL (≈ 61.3 µM).
Consider `COc1c(NC(=O)c2cc3cccc(CN4CCN(C(=O)[C@@H]5CCCN5C)CC4)c3n2C)cc(C(C)(C)C)cc1[S+](C)[O-]` (stereo partly drawn) [11(3), 1-methyl-7-[4-((2S)-1-methyl-pyrrolidine-2-carbonyl)-piperazin-1-ylmethyl]-1H-indole-2-carboxylic acid-(5-tert-butyl-3-methanesulphinyl-2-methoxy-phenyl)-amide], for which, at p38 MAP-kinase, the “p38 (% Inh @ 1 μM)” value is 99.0% and 98.7%; the inhibition at 1 µM came to 98.6%. Besides, at cytochrome P450 2C9, the IC50 was 780 nM and 870 nM and 560 nM.

The values above are taken from patent publication US8686022B2, “7-(piperazine-1-ymethyl)-1H-indole-2-carboxylic acid (phenyl)-amide derivatives and allied compounds as p38 MAP kinase inhibitors for the treatment of respiratory diseases” (Boehringer Ingelheim International GmbH, priority 2008, dated 2014).
